Results reported in ChEMBL document CHEMBL5528066, “Discovery of Novel N-(Anthracen-9-ylmethyl) Benzamide Derivatives as ZNF207 Inhibitors Promising in Treating Glioma” (J Med Chem, 2024).
Activity calls are given as the source filed them. The rule behind the calls is not given here.

Legend:
H4 [1] = assay: Inhibition of sphere formation in human H4 cells at 2 uM measured after 10 days in well containing 1 cells by microscopic analysis; assay type: functional, cell-based; details: time 10.0 day
[2] = Toxicity in male C57BL/6 mouse assessed as change in cellular structure of lung at 45 mg/kg, po administered once a day for 2 weeks by H and E staining based analysis; assay type: organism-based; details: in vivo, 336 h
MDR1 [3] = assay: Apparent permeability across apical to basolateral side in MDCKII-MDR1 cells assessed as drug recovery at 1 uM incubated for 2 hrs by LC-MS/MS analysis; assay type: ADME, cell-based, Canis lupus familiaris; details: dog, MDCK-MDR1, read-out: Drug recovery
U-251 [4] = assay: Inhibition of sphere formation in human U-251MG cells at 2 uM measured after 10 days in well containing 1 cells by microscopic analysis; assay type: functional, cell-based; details: time 10.0 day
LN-229 [5] = assay: Inhibition of sphere formation in human LN-229 cells at 2 uM measured after 10 days in well containing 1 cells by microscopic analysis; assay type: functional, cell-based; details: time 10.0 day
U-937 = assay: Antiproliferative activity against human U-937 cells assessed as inhibition of cell growth incubated for 72 hrs by CCK-8 assay; assay type: functional, cell-based; details: U-937, 72 h
Hs 683 [6] = assay: Inhibition of sphere formation in human Hs 683 cells incubated for 168 hrs by microscopic analysis; assay type: functional, cell-based; details: Hs 683, 168 h
[7] = Toxicity in female C57BL/6 mouse assessed as change in cellular structure of liver at 45 mg/kg, po administered once a day for 2 weeks by H and E staining based analysis; assay type: organism-based; details: in vivo, 336 h
Hs 683 [8] = assay: Antiproliferative activity against human Hs 683 cells assessed as inhibition of cell growth measured after 72 hrs by CCK-8 assay; assay type: functional, cell-based; details: Hs 683, 72 h
U-251 [9] = assay: Inhibition of sphere formation in human U-251MG cells at 1 uM measured after 10 days in well containing 10000 cells by microscopic analysis; assay type: functional, cell-based; details: time 10.0 day
[10] = Toxicity in male C57BL/6 mouse assessed as change in cellular structure of kidney at 45 mg/kg, po administered once a day for 2 weeks by H and E staining based analysis; assay type: organism-based; details: in vivo, 336 h
U-251 [11] = assay: Inhibition of sphere formation in human U-251MG cells assessed as fold reduction in sphere initiating frequency at 2 uM incubated for 10 days by microscopic analysis relative to control; assay type: functional; details: time 10 day
[12] = Drug concentration in male Sprague-Dawley rat intestine at 45 mg/kg, po measured after 8 hrs by LC-MS/MS analysis; assay type: ADME, organism-based; details: read-out: Ct
[13] = Drug uptake in Sprague-Dawley rat blood at 10 to 90 ng/ml, po administered as single dose and measured after 8 hrs by LC-MS/MS analysis; assay type: ADME, organism-based; details: in vivo, dose 10-90 ng/ml
LN-229 [14] = assay: Inhibition of sphere formation in human LN-229 cells at 4 uM measured after 10 days in well containing 10 cells by microscopic analysis; assay type: functional, cell-based; details: time 10.0 day
U-251 [15] = assay: Inhibition of sphere formation in human U-251MG cells at 8 uM measured after 10 days in well containing 100 cells by microscopic analysis; assay type: functional, cell-based; details: time 10.0 day
MDR1 [16] = assay: Apparent permeability across apical to basolateral side in MDCKII-MDR1 cells at 1 uM incubated for 2 hrs by LC-MS/MS analysis; assay type: ADME, cell-based, Canis lupus familiaris; details: dog, MDCK-MDR1
H4 [17] = assay: Inhibition of sphere formation in human H4 cells at 8 uM measured after 10 days in well containing 1 cells by microscopic analysis; assay type: functional, cell-based; details: time 10.0 day
U-251 [18] = assay: Inhibition of sphere formation in human U-251MG cells at 2 uM measured after 10 days in well containing 10000 cells by microscopic analysis; assay type: functional, cell-based; details: time 10.0 day
U-251 [19] = assay: Inhibition of sphere formation in human U-251MG cells at 8 uM measured after 10 days in well containing 1 cells by microscopic analysis; assay type: functional, cell-based; details: time 10.0 day
[20] = Toxicity in female C57BL/6 mouse assessed as change in cellular structure of brain at 45 mg/kg, po administered once a day for 2 weeks by H and E staining based analysis; assay type: organism-based; details: in vivo, 336 h
LN-229 [21] = assay: Antitumor activity against human LN-229 cells xenografted in BALB/c nude mouse assessed as tumor growth delay by measuring tumor volume at 15 mg/kg, po administered once a day and measured every 2 days for 49 days (reference value: 700 […]); assay type: functional; details: time 49 day
U-251 [22] = assay: Induction of apoptosis in human U-251MG cells assessed as apoptotic cells at 2.5 uM incubated for 24 hrs by Annexin V-FITC/PI staining based flow cytometry analysis relative to control; assay type: functional
LN-229 [23] = assay: Inhibition of sphere formation in human LN-229 cells at 4 uM measured after 10 days in well containing 100 cells by microscopic analysis; assay type: functional, cell-based; details: time 10.0 day
[24] = target: BUB3-interacting and GLEBS motif-containing protein ZNF207 (Homo sapiens, UniProt O43670); assay: Binding affinity to ZNF207 in human H4 cells assessed as thermal stabilization by measuring increase in melting temperature at 30 uM incubated for 3 hrs by CETSA; assay type: cell-based
HeLa = assay: Antiproliferative activity against human HeLa cells assessed as inhibition of cell growth incubated for 72 hrs by CCK-8 assay; assay type: functional, cell-based
H4 [25] = assay: Downregulation of SOX2 protein expression in human H4 cells at 2 to 4 uM incubated for 48 hrs by Western blot analysis; assay type: functional, cell-based; details: dose 2-4 µM
U-251 [26] = assay: Inhibition of sphere formation in human U-251MG cells assessed as fold reduction in sphere initiating frequency at 1 uM incubated for 10 days by microscopic analysis relative to control; assay type: functional; details: time 10 day
[27] = Drug concentration in female Sprague-Dawley rat heart at 45 mg/kg, po measured after 8 hrs by LC-MS/MS analysis; assay type: ADME, organism-based; details: read-out: Ct
[28] = Drug concentration in male Sprague-Dawley rat lung at 45 mg/kg, po measured after 8 hrs by LC-MS/MS analysis; assay type: ADME, organism-based; details: read-out: Ct
U-251 [29] = assay: Inhibition of sphere formation in human U-251MG cells at 8 uM measured after 10 days in well containing 10000 cells by microscopic analysis; assay type: functional, cell-based; details: time 10.0 day
[30] = Drug concentration in female Sprague-Dawley rat kidney at 45 mg/kg, po measured after 8 hrs by LC-MS/MS analysis; assay type: ADME, organism-based; details: read-out: Ct
Hs 683 [31] = assay: Inhibition of sphere formation in human Hs 683 cells at 1 uM measured after 10 days in well containing 10000 cells by microscopic analysis; assay type: functional, cell-based; details: time 10.0 day
LN-229 [32] = assay: Antiproliferative activity against human LN-229 cells assessed as inhibition of cell growth measured after 72 hrs by CCK-8 assay; assay type: functional, cell-based; details: LN-229, 72 h
H4 [33] = assay: Inhibition of sphere formation in human H4 cells at 8 uM measured after 10 days in well containing 10 cells by microscopic analysis; assay type: functional, cell-based; details: time 10.0 day
LN-229 [34] = assay: Inhibition of cell migration in human LN-229 cells assessed as reduction in wound closure ability measured after 24 to 48 hrs by wound healing assay; assay type: functional, cell-based; details: dose 2.5-10 µM, time 24-48 hrs
Hs 683 [35] = assay: Induction of apoptosis in human Hs 683 cells at 1.25 uM incubated for 24 hrs by Annexin V-FITC/PI staining based flow cytometry analysis; assay type: functional, cell-based
LN-229 [36] = assay: Inhibition of sphere formation in human LN-229 cells assessed as fold reduction in sphere initiating frequency at 8 uM incubated for 10 days by microscopic analysis relative to control; assay type: functional; details: time 10 day
[37] = Drug concentration in male Sprague-Dawley rat spleen at 45 mg/kg, po measured after 8 hrs by LC-MS/MS analysis; assay type: ADME, organism-based; details: read-out: Ct

Chain of BUB3-interacting and GLEBS motif-containing protein ZNF207 (O43670 whole entry): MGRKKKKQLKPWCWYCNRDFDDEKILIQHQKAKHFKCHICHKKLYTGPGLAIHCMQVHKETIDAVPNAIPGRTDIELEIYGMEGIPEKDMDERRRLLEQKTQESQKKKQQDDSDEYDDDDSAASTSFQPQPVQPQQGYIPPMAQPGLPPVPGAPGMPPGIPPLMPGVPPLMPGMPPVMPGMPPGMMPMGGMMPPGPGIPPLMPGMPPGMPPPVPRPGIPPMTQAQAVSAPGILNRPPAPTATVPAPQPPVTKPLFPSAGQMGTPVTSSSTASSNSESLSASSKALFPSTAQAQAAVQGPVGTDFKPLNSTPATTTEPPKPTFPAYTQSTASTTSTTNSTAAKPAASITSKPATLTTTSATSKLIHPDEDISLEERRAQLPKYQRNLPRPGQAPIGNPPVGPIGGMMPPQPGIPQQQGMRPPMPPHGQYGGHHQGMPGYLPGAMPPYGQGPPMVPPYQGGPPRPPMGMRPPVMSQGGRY

recovery at 2 h, 1 µM (MDR1 [3]): 96%
IC50 (U-937): 14 µM
IC50 (Hs 683 [6]): 2.1 µM
concentration at 8 h [12]: 688 ng/g
Drug uptake [13]: Active
Papp A→B at 2 h, 1 µM (MDR1 [16]): 1.26 ×10⁻⁶ cm/s
ΔTm [24]: 1.9 °C
IC50 (HeLa): 8.13 µM
concentration at 8 h [27]: 783 ng/g
concentration at 8 h [28]: 2050 ng/g
concentration at 8 h [30]: 816 ng/g
concentration at 8 h [37]: 655 ng/g
SMILES: N#CC1(C(=O)NCCC2CCN(Cc3ccccc3)CC2)CC2(Br)c3ccccc3C1c1ccccc12 (racemic)
inhibition (H4 [1]): Active
Activity [2]: Non-Toxic
inhibition (U-251 [4]): Active
inhibition (LN-229 [5]): Active
Activity [7]: Non-Toxic
IC50 (Hs 683 [8]): 8.53 µM
inhibition (U-251 [9]): inactive
Activity [10]: Non-Toxic
fold change (FC) (U-251 [11]): 35.63
inhibition (LN-229 [14]): Active
inhibition (U-251 [15]): Active
inhibition (H4 [17]): Active
inhibition (U-251 [18]): inactive
inhibition (U-251 [19]): Active
Activity [20]: Non-Toxic
Activity (LN-229 [21]): 280 mm3
Activity (U-251 [22]): ~20%
inhibition (LN-229 [23]): Active
Activity (H4 [25]): Active
fold change (FC) (U-251 [26]): 2.78
inhibition (U-251 [29]): inactive
inhibition (Hs 683 [31]): inactive
IC50 (LN-229 [32]): 4.99 µM
inhibition (H4 [33]): Active
inhibition (LN-229 [34]): Dose-Dependent Effect
Activity (Hs 683 [35]): Active
fold change (FC) (LN-229 [36]): 107.58
